The values that follow are results of earlier work, collected in US12245592B2, “Encapsulated biocides and biorepellents” (Aerogel ApS, priority 2018, dated 2025).

The conditions of this data set: pure biocide.
For the compound `On1ccccc1=S.On1ccccc1=S.[Cu]` [Copper pyrithione, copper pyrithione], the Biocide density is 1.82 gr/cm^3. Consider `N#C[S][Cu][S]C#N` [Copper thiocyanate], for which the Biocide density was 2.84 gr/cm^3.

For `N#Cc1c(-c2ccc(Cl)cc2)[nH]c(C(F)(F)F)c1Br` [Econea, 4-bromo-2-(4-chlorophenyl)-5-(trifluoromethyl)-1H-pyrrole-3-carbonitrile], the Biocide density was 1.71 gr/cm^3. Turning to Zinc pyrithione, the Biocide density was 1.78 gr/cm^3.
